Experimental data published in patent US9920069B2, “Compounds for treatment of fluoroquinolone-resistant bacteria” (The Board of Trustees of the University of Illinois, priority 2014, dated 2018).
Converted amounts (≈) assume the structure as drawn. Where two headings read alike, the source gives them in different places.

What was measured:
[1] = test system: S. aureus 29213 (WT GyrA and WT ParC); test: microbe, parasite or virus in culture; format: cell-based; conditions: Staphylococcus aureus; WT GyrA and WT ParC; read-out: MIC against S. aureus 29213
Description: (§1) Susceptibility testing was performed in triplicate using the microdilution broth method as outlined by the Clinical and Laboratory Standards Institute CLSI^52. MH broth was used.

[2] = physchem; conditions: organic solvent or mixture, thermodynamic from solid
[3] = physchem; conditions: for Solubility in pH 7.4 PBS: three replicates ± SEM
Description: Enough PBS was added to make a 1 mg/mL solution. Compounds were then assessed by LC-MS and compared to a calibration curve to determine the solubility. […] Data shown is from three independent replicates±SEM. […] Between DMSO additions, the vial was vortexed and sonicated.
The compound was vortexed for ˜30 seconds before being placed into a bath sonicator (Cole Parmer, ultrasonic cleaner) for 1 h. […] The tubes were vortexed again for 30 s before being centrifuged at maximum speed (13,000×g) for 10 minutes. The supernatant was then filtered through a 0.22 μm syringe filter (Millipore Millex MP). […] Three independent replicates of each compound were performed. A calibration curve for each compound was generated from 1-400 μM by dissolving the compound in DMSO and making dilutions of the stock in DMSO. […] The concentration of the samples was calculated based on the calibration curves.

[4] = Pharmacokinetic assessment, serum by HPLC; format: in vivo, C57BL/6 mice; conditions: mouse serum
Description: FIG. 13. Pharmacokinetic analysis of DNM, DNM-2, and DNM-3. C57/BL6 mice were treated with 50 mg kg^−1 DNM, DNM-2, or DNM-3 via oral gavage. After the indicated time points (15, 30, 60, 120, 240, and 480 min), mice were sacrificed and the serum concentrations of DNM, DNM-2, and DNM-3 was determined by HPLC.
The animal studies (PK, in vivo toxicity and in vivo efficacy) were carried out in strict accordance with the recommendations in the Guide for the Care and Use of Laboratory Animals of the National Institutes of Health. […] In these studies, 10-12 week old female C57BL/6 mice purchased from Charles River were used. DNM, DNM-2, and DNM-3 were formulated as slurries at 8.3 mg mL^−1 in 25% Cremophor RH40/water (v/v). Before beginning the pharmacokinetic assessment, mice were first tested for their ability to tolerate the DNM, DNM-2, and DNM-3 at 50 mg kg^−1 (p.o.). […] At specified time points, mice were sacrificed and blood was collected, centrifuged, and the serum was frozen at −80° C. until analysis. The proteins in a 50 μL aliquot of serum were precipitated by the addition of 50 μL of acetonitrile and the sample was centrifuged to remove the proteins. Serum concentrations of DNM, DNM-2, and DNM-3 were determined by HPLC. PK parameters were determined using GraphPad Prism Version 5.00 for Windows.

[5] = test system: MRSA clinical isolate SAU.494; test: microbe, parasite or virus in culture; format: cell-based, S. aureus; conditions: Staphylococcus aureus
Description: as §1

[6] = test system: MRSA clinical isolate SAU.555; test: MIC, microdilution broth; format: cell-based, S. aureus; conditions: Staphylococcus aureus
Description: as §1

[7] = test system: MRSA clinical isolate SAU.2996; test: MIC, microdilution broth; format: cell-based, S. aureus; conditions: Staphylococcus aureus, MRSA, read-out: MIC
Description: as §1

[8] = test system: MRSA clinical isolate SAU.419; test: MIC, microdilution broth; format: cell-based, S. aureus; conditions: Staphylococcus aureus, MRSA, read-out: MIC
Description: as §1

[9] = test system: MRSA clinical isolate SAU.3025; test: MIC, microdilution broth; format: cell-based, S. aureus; conditions: Staphylococcus aureus
Description: as §1

[10] = test system: MRSA clinical isolate SAU.3021; test: MIC, microdilution broth; format: cell-based, S. aureus; conditions: Staphylococcus aureus, MRSA, read-out: MIC
Description: as §1

[11] = test system: MRSA clinical isolate SAU.669; test: MIC, microdilution broth; format: cell-based, S. aureus; conditions: Staphylococcus aureus
Description: as §1

[12] = test system: MRSA clinical isolate SAU.446; test: MIC, microdilution broth; format: cell-based, S. aureus; conditions: Staphylococcus aureus
Description: as §1

[13] = test system: MRSA clinical isolate SAU.491; test: microbe, parasite or virus in culture; format: cell-based, S. aureus; conditions: Staphylococcus aureus
Description: as §1

[14] = test system: MRSA clinical isolate SAU.492; test: microbe, parasite or virus in culture; format: cell-based, S. aureus; conditions: Staphylococcus aureus
Description: as §1

[15] = test system: MRSA clinical isolate SAU.708; test: microbe, parasite or virus in culture; format: cell-based, S. aureus; conditions: Staphylococcus aureus
Description: as §1

[16] = test system: MRSA clinical isolate SAU.493; test: microbe, parasite or virus in culture; format: cell-based, S. aureus; conditions: Staphylococcus aureus
Description: as §1

[17] = test system: MRSA clinical isolate SAU.489; test: microbe, parasite or virus in culture; format: cell-based, S. aureus; conditions: Staphylococcus aureus
Description: as §1

[18] = test system: MRSA clinical isolate SAU.495; test: microbe, parasite or virus in culture; format: cell-based, S. aureus; conditions: Staphylococcus aureus
Description: as §1

[19] = test system: MRSA clinical isolate SAU.709; test: microbe, parasite or virus in culture; format: cell-based, S. aureus; conditions: Staphylococcus aureus
Description: as §1

[20] = test system: MRSA clinical isolate SAU.496; test: microbe, parasite or virus in culture; format: cell-based, S. aureus; conditions: Staphylococcus aureus
Description: as §1

[21] = test system: MRSA clinical isolate SAU.710; test: microbe, parasite or virus in culture; format: cell-based, S. aureus; conditions: Staphylococcus aureus
Description: as §1

[22] = test system: MRSA clinical isolate SAU.3024; test: MIC, microdilution broth; format: cell-based, S. aureus; conditions: Staphylococcus aureus
Description: as §1

[23] = test system: MRSA clinical isolate SAU.1118; test: MIC, microdilution broth; format: cell-based, S. aureus; conditions: Staphylococcus aureus
Description: as §1

[24] = target: T1, human topoisomerase II (Homo sapiens, UniProt P11388); test: Human topoisomerase decatenation assay; format: biochemical; conditions: lowest inhibiting / highest without significant inhibition
T1 construct: purchased Inspiralis
T1 sequence (P11388 whole entry): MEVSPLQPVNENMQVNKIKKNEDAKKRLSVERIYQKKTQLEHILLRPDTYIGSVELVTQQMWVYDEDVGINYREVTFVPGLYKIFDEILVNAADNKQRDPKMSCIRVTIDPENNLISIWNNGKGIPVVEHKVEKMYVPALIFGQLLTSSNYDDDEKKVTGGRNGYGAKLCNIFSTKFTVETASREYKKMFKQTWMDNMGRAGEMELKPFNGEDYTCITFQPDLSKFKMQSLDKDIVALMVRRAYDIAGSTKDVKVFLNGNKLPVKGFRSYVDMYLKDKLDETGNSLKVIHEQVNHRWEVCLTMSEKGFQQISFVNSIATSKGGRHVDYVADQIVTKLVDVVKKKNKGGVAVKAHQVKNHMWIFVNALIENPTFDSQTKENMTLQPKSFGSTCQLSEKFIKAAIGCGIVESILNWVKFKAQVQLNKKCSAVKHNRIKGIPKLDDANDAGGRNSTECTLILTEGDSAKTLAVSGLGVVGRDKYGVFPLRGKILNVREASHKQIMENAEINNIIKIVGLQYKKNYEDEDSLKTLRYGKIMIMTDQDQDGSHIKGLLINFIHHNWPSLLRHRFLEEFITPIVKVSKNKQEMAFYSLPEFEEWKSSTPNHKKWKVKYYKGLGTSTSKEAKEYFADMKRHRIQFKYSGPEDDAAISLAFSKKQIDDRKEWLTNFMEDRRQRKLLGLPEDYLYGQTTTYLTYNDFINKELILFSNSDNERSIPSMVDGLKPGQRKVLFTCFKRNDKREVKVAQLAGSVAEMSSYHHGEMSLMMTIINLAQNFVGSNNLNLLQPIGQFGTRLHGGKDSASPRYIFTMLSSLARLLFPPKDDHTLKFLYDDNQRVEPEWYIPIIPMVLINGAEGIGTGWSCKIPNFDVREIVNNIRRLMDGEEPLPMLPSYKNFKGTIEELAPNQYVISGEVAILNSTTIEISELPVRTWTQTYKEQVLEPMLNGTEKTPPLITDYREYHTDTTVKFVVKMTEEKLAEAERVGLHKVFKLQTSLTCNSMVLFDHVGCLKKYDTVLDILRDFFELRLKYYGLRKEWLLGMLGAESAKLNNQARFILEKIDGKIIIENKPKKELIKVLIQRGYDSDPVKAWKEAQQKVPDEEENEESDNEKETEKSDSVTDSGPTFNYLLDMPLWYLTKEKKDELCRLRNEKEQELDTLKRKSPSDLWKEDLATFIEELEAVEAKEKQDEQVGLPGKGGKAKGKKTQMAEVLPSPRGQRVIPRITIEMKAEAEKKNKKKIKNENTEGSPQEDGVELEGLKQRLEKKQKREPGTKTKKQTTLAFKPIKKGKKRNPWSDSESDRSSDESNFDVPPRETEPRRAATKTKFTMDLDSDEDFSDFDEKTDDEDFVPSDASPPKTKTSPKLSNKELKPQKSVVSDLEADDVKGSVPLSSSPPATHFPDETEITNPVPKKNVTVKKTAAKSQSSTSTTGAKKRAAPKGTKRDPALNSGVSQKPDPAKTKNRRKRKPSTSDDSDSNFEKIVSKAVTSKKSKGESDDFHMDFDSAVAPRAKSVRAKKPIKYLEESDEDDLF
Description: The decatenation assay was performed with the Human Topo II Decatenation Assay Kit (Inspiralis) according to the manufacturer's instructions with minor modifications. First, a master mix was made containing 2 μL 10× assay buffer (500 mM Tris.HCl, pH 7.5, 1250 mM NaCl, 100 mM MgCl2, 50 mM DTT, 1000 μg/mL albumin), 0.67 μL 30 mM ATP, 1.34 μL 0.1 ng/μL kDNA, and 14.3 μL of nuclease free water per sample is made. DMSO or 30× compound is added to a 0.5 mL Eppendorf tube (0.67 μL per tube). The master mix is then added to each tube (18.3 μL per tube). Finally, 1 U of human topoisomerase (1 μL of 1 U/μL stock) is added to each tube for a final volume of 20 μL. The tubes are then incubated at 37° C. for 30 min. Reactions are stopped by the addition of 20 μL of 24:1 chloroform:isoamyl alcohol and 20 μL of stop dye (40% sucrose, 1 mM EDTA, 100 mM TrisHCl pH 7.5, 0.5 μg/mL bromophenol blue). Samples were run on 1% agarose gels containing 0.5 μg/mL ethidium bromide for 1 h at 110V or until the dye front was approximately halfway down the gel. Gels were imaged on a Molecular Imager Gel Doc XR+ (Biorad).

[25] = test system: K. pneuomoniae, S. aureus, or M. tuberculosis; conditions: mice infected with various bacteria; cited from earlier work
[26] = subcutaneously, orally, or by IP injection; cited from earlier work

SMILES: Cc1cc(=O)n2c3c(c4c(cc13)c(C)cc(=O)n4CC(C)(C)C)OC2 [Compound 12]
- MIC [1]: 32 µg/mL (≈ 94.6 µM)
- solubility [2]: 38.7 mM (≈ 13100 µg/mL)

SMILES: CCc1cc(=O)n(C)c2c3c4c(cc12)c(CC)cc(=O)n4CO3 [Compound 13]
- MIC [1]: > 32 µg/mL
- solubility [2]: 5.2 mM (≈ 1610 µg/mL)
- Solubility in pH 7.4 PBS [3]: 48 μM

SMILES: CCCc1cc(=O)n(C)c2c3c4c(cc12)c(CCC)cc(=O)n4CO3 [Compound 14]
- MIC [1]: > 32 µg/mL
- solubility [2]: 18.3 mM (≈ 6190 µg/mL)
- solubility at 1 h ([3]; pH 7.4, aqueous buffer, thermodynamic from solid): < 0.001 mM

SMILES: CCCCn1c(=O)cc(CCC)c2cc3c(CCC)cc(=O)n4c3c(c21)OC4 [Compound 15]
- MIC [1]: > 32 µg/mL
- solubility [2]: 4.2 mM (≈ 1600 µg/mL)

SMILES: CCc1cc(=O)n2c3c(c4c(cc13)c(C)cc(=O)n4C)OC2 [DNM-3]
- MIC [1]: 8 µg/mL (≈ 27 µM)
- solubility [2]: 1.3 mM (≈ 385 µg/mL)
- AUC ([4]; 50 mg kg^−1 oral dose): 4000 ng·h/mL
- Cmax / peak serum concentration ([4]; 50 mg kg^−1 oral dose): 1260 ng/mL
- Cmax ([4]; 50 mg kg^−1 oral dose, read-out: Cmax / peak serum concentration): 4.3 µM
- AUC ([4]; 50 mg kg^−1 oral gavage): 4000 ng·h/mL
- Cmax ([4]; 50 mg kg^−1 oral gavage): 1260 ng/mL
- Tmax ([4]; 50 mg kg^−1 oral gavage): 1.1 h
- t1/2 ([4]; 50 mg kg^−1 oral gavage): 1.2 h
- Solubility in pH 7.4 PBS [3]: 27 μM

SMILES: CO[C@@H]1[C@@H](OC(N)=O)[C@@H](O)[C@H](Oc2ccc3c(O)c(NC(=O)c4ccc(O)c(CC=C(C)C)c4)c(=O)oc3c2C)OC1(C)C [Novo, Novobiocin]
- MIC ([5]; read-out: MIC): 0.125 µg/mL (≈ 0.204 µM)
- MIC [6]: 0.25 µg/mL (≈ 0.408 µM)
- MIC [7]: 0.5 µg/mL (≈ 0.816 µM)
- MIC [8]: 0.25 µg/mL (≈ 0.408 µM)
- MIC [9]: 0.25 µg/mL (≈ 0.408 µM)
- MIC [10]: 0.25 µg/mL (≈ 0.408 µM)
- MIC [11]: 0.5 µg/mL (≈ 0.816 µM)
- MIC [12]: 0.5 µg/mL (≈ 0.816 µM)

SMILES: CN[C@H](CC(C)C)C(=O)N[C@H]1C(=O)N[C@@H](CC(N)=O)C(=O)N[C@H]2C(=O)N[C@H]3C(=O)N[C@H](C(=O)N[C@H](C(=O)O)c4cc(O)cc(O)c4-c4cc3ccc4O)[C@H](O)c3ccc(c(Cl)c3)Oc3cc2cc(c3O[C@@H]2O[C@H](CO)[C@@H](O)[C@H](O)[C@H]2O[C@H]2C[C@](C)(N)[C@H](O)[C@H](C)O2)Oc2ccc(cc2Cl)[C@H]1O [VANC, vancomycin, reference compound]
- MIC [1]: 1 µg/mL (≈ 0.69 µM)
- MIC [13]: 2 µg/mL (≈ 1.38 µM)
- MIC [14]: 1 µg/mL (≈ 0.69 µM)
- MIC [5]: 1 µg/mL (≈ 0.69 µM)
- MIC [15]: 2 µg/mL (≈ 1.38 µM)
- MIC [16]: 1 µg/mL (≈ 0.69 µM)
- MIC [17]: 2 µg/mL (≈ 1.38 µM)
- MIC [18]: 2 µg/mL (≈ 1.38 µM)
- MIC [19]: 1 µg/mL (≈ 0.69 µM)
- MIC [20]: 1 µg/mL (≈ 0.69 µM)
- MIC [21]: 2 µg/mL (≈ 1.38 µM)
- MIC [7]: 1 µg/mL (≈ 0.69 µM)
- MIC [22]: 2 µg/mL (≈ 1.38 µM)
- MIC [23]: 2 µg/mL (≈ 1.38 µM)
- MIC [10]: 1 µg/mL (≈ 0.69 µM)

SMILES: COc1cccc2c1C(=O)c1c(O)c3c(c(O)c1C2=O)C[C@@](O)(C(=O)CO)C[C@@H]3O[C@H]1C[C@H](N)[C@H](O)[C@H](C)O1 [doxorubicin, reference compound]
- concentration inhibiting human topoisomerase II [24]: 3 µM

SMILES: Cc1cc(=O)n2c3c(c4c(cc13)c(CO)cc(=O)n4C)OC2 [nybomycin]
- activity in infected mice [25]: no activity
- tolerability in mice [26]: well tolerated
